Laboratory results taken from US20050233942A1, “Oxygenated dibenzo-alpha-pyrone chromoproteins” (priority 2004, published 2005).
In brackets after ≈: the same amount, converted by molar mass.

Experiments:
[1] = tested on: Fe-ADP-ascorbate induced lipid peroxidation (LPO) in rat brain; assay: Inhibition of Fe-ADP-ascorbate induced lipid peroxidation (LPO) in rat brain homogenate; type: biochemical, Albino rats (Sprague Dawley strain); details: 37° C., 30 minutes
Procedure: Inhibition of Fe-ADP-ascorbate induced lipid peroxidation (LPO) in rat brain by DBP and DCPs
Albino rats (Sprague Dawley strain) were sacrificed by cervical dislocation and decapitation. Brains were dissected out and 10% w/v homogenate was prepared in 0.15 M KCl. The brain homogenate was centrifuged at 1500 rpm for 10 minutes and the supernatant was used for the study. The incubation mixture contained in a final volume of 1 ml., brain homogenate (500 μl), distilled water (100 μl) or test compounds dissolved in solvents at different concentrations (10 to 100 μg/ml of the final volume). Peroxidation was initiated by adding FeCl3 (100 μM), ADP (1 mM) and ascorbate (100 μM) to give the final concentration stated. After incubating at 37° C. for 30 minutes, the reaction was stopped by adding acetic acid buffer (1.5 ml, pH 3.5) and thiobarbituric acid solution (1.5 ml, pH 7.4) to 1 ml of LPO mixture. The reaction mixture was heated at 85° C. for 30 minutes, cooled, centrifuged (2000 rpm for 10 minutes) and the absorbance of the supernatant was measured at 532 nm. IC50 values were calculated in the usual way by plotting the concentration of the test compounds versus percent inhibition of LPO.

[2] = tested on: chronic stress (CS) induced gastric ulceration; assay: Chronic stress (CS) induced gastric ulceration in albino rats; type: in vivo, CF strain albino rats; details: 14 days
Procedure: A comparative study of shilajit bioactive constituents from EPA, DHA, DBPs and DCPs, was carried out to determine their adaptogenic potency against chronic stress (CS) in albino rats. It is now increasingly becoming evident that CS of a mild but unpredictable nature which the animal is unable to cope with (inescapable stress), is clinically more relevant than acute stress even when the latter is severe in nature. It is believed that chronic, unpredictable, and inescapable stress resembles the situation faced by an individual that ultimately results in chronic stress-induced physiological perturbation and disease. Animals The investigation was carried out on CF strain albino rats, of either sex (140-180 g), housed in colony cages at an ambient temperature of 25±2° C., with a 12 h. light/12 h. dark cycle. […] The procedure of Armario et al (1993) was followed. Briefly, rats were randomly assigned to control or stress groups. Those assigned to the stress groups were subjected to 1 h foot shock, through a grid floor, every day for 14 days. The duration of each shock (2 mA) and the intervals between the shocks were randomly programmed between 3-5 sec. and 10-110 sec., respectively, to make the stress unpredictable. The shock chamber had high walls which made escape from shock impossible. EPA (Aldrich, Milw.), DHA (Sigma), DBPs and DCPs were separately suspended/dissolved in 0.3% carboxymethylcellulose(CMC) in distilled water and administered orally (p.o.), for 14 days, starting on day 1, 60 min prior to electroshock. Control animals received only the vehicle in either unstressed or the stressed rats for the same period in a volume of 2.5 ml/kg, p.o. Estimations were conducted on day 14, one hour after the last stress procedure and two hours after the last test compound or vehicle was administered. Gastric ulcerations (Bhattacharya et al., 1987). On day 14, rats were killed by decapitation the stomach was split open along the greater curvature and the numbers of discrete ulcers were noted. […] Thereafter, the pooled ulcer score was calculated according to the method of Bhattacharya et al. (1987).

[3] = tested on: adrenal gland ascorbic acid and corticosterone concentrations and plasma corticosterone level; assay: CS induced alteration of adrenal gland ascorbic acid and corticosterone and plasma corticosterone (adrenocorticoid activity); type: in vivo, CF strain albino rats; details: 5 mg/kg p.o. + CS
Procedure: Animals The investigation was carried out on CF strain albino rats, of either sex (140-180 g), housed in colony cages at an ambient temperature of 25±2° C., with a 12 h. light/12 h. dark cycle. Experiments were conducted between 0900 and 1400 hrs. • EPA, Eicosapentaenoic acid • DHA, Docosahexaenoic acid • DBPs, 1:1 mixture of 3-hydroxy- and 3,8-dihydroxydibenzo-alpha-pyrone • DCPs, DBP-chromoproteins
The procedure of Armario et al (1993) was followed. Briefly, rats were randomly assigned to control or stress groups. Those assigned to the stress groups were subjected to 1 h foot shock, through a grid floor, every day for 14 days. The duration of each shock (2 mA) and the intervals between the shocks were randomly programmed between 3-5 sec. and 10-110 sec., respectively, to make the stress unpredictable. The shock chamber had high walls which made escape from shock impossible.
EPA (Aldrich, Milw.), DHA (Sigma), DBPs and DCPs were separately suspended/dissolved in 0.3% carboxymethylcellulose(CMC) in distilled water and administered orally (p.o.), for 14 days, starting on day 1, 60 min prior to electroshock. […]
Adrenal gland ascorbic acid (Zenker and Bernstein, 1958) and corticosterone concentrations (Selye, 1936), and plasma corticosterone levels (Selye, 1936) were determined to substantiate the validity and intensity of the stress procedure adopted.

| SMILES | IC50 (LPO) [1] [µg/mL] | Ulcer incidence % ([2]; 5 mg/kg p.o.) [%] | Ulcer incidence % ([2]; 10 mg/kg p.o.) [%] | Adrenal corticosterone [3] [μg/100 mg] | Plasma corticosterone [3] [µg/dL] |
| --- | --- | --- | --- | --- | --- |
| O=c1oc2cc(O)ccc2c2ccc(O)cc12 [3,8-Dihydroxydibenzo-alpha-pyrone] | 30 (≈ 131 µM) |  |  |  |  |
| CC/C=C\C/C=C\C/C=C\C/C=C\C/C=C\C/C=C\CCC(=O)O [DHA, Docosahexaenoic acid] |  | 70 | 60 |  |  |
| CC/C=C\C/C=C\C/C=C\C/C=C\C/C=C\CCCC(=O)O [EPA, Eicosapentaenoic acid] |  | 70 | 60 | 2.3 ± 0.8 | 22.1 ± 2.9 |

Now from value to molecule, other results behind:

| IC50 (LPO) [1] [µg/mL] | SMILES | Ulcer incidence % ([2]; 5 mg/kg p.o.) [%] | Ulcer incidence % ([2]; 10 mg/kg p.o.) [%] | Adrenal corticosterone [3] [μg/100 mg] | Plasma corticosterone [3] [µg/dL] |
| --- | --- | --- | --- | --- | --- |
| 70 (≈ 397 µM) | O=C1O[C@H]([C@@H](O)CO)C(O)=C1O [Ascorbic acid] |  |  |  |  |
| 56 | CC(=O)Oc1c(C)c(C)c2c(c1C)CCC(C)(CCC[C@H](C)CCC[C@H](C)CCCC(C)C)O2 (stereo partly drawn) [Vitamin E acetate] |  |  |  |  |
